From ChEMBL document CHEMBL4308901, “Synthesis and biological evaluation of BMS-986120 and its deuterated derivatives as PAR4 antagonists” (Bioorg Med Chem, 2019)

Species on record: Mus musculus
Assay: Antiplatelet activity in ICR mouse platelet rich plasma assessed as inhibition of PAR4-AP-induced platelet aggregation pretreated for 5 mins followed by PAR4-AP addition by aggregometric analysis
Format: functional

[2H]C(Oc1cc(OC([2H])([2H])[2H])cc2oc(-c3cn4nc(OC([2H])([2H])[2H])sc4n3)cc12)c1nc(N2CCOCC2)sc1C (stereo not drawn)
IC50: 9.45 nM

[2H]C(Oc1cc(OC)cc2oc(-c3cn4nc(OC)sc4n3)cc12)c1nc(N2CCOCC2)sc1C (stereo not drawn)
IC50: 14.5 nM

[2H]C([2H])([2H])Oc1nn2cc(-c3cc4c(OCc5nc(N6CCOCC6)sc5C)cc(OC)cc4o3)nc2s1
IC50: 8.74 nM

[2H]C([2H])([2H])Oc1cc(OCc2nc(N3CCOCC3)sc2C)c2cc(-c3cn4nc(OC([2H])([2H])[2H])sc4n3)oc2c1
IC50: 6.97 nM

[2H]C(Oc1cc(OC([2H])([2H])[2H])cc2oc(-c3cn4nc(OC)sc4n3)cc12)c1nc(N2CCOCC2)sc1C (stereo not drawn)
IC50: 8.15 nM

COc1cc(OCc2nc(N3CCOCC3)sc2C)c2cc(-c3cn4nc(OC)sc4n3)oc2c1
IC50: 7.8 nM

[2H]C([2H])([2H])Oc1cc(OCc2nc(N3CCOCC3)sc2C)c2cc(-c3cn4nc(OC)sc4n3)oc2c1
IC50: 6.3 nM

[2H]C(Oc1cc(OC)cc2oc(-c3cn4nc(OC([2H])([2H])[2H])sc4n3)cc12)c1nc(N2CCOCC2)sc1C (stereo not drawn)
IC50: 7.69 nM
